Results on 30 molecules are retold here after paper PMC11413964, “Discovery of 1,3-disubstituted prop-2-en-1-one derivatives as inhibitors of neutrophilic inflammation via modulation of MAPK and Akt pathways” (Journal of Enzyme Inhibition and Medicinal Chemistry, 2024).

For data set [1], the system named is fMLF/cytochalasin B (CB)-activated human neutrophils. The data set is described as follows: Superoxide anion generation (ferricytochrome c reduction) in fMLF/CB-activated human neutrophils. The following applies: Neutrophil, fMLF/CB stimulation, mean ± SEM (n = 3–5); for inhibition at 10 µM: 10 μM compound. It counts as cell-based. On the procedure: (§1) The study involving neutrophils was approved by the Institutional Review Board of Chang Gung Memorial Hospital under IRB number: 201902217A3 and was conducted in accordance with the principles of the Declaration of Helsinki. Healthy volunteers aged 20–35 years provided signed informed consents for blood collection. Isolation of neutrophils was done using dextran sedimentation, Ficoll-Hypaque density gradient centrifugation, and hypotonic haemolysis. For the anti-inflammatory studies, neutrophils were suspended in Hank’s balanced salt solution (HBSS) containing 1 mM Ca^2+ at a pH of 7.4[72].
The reduction of ferricytochrome c was utilised to measure the production of SO anions in activated human neutrophils. […] The neutrophils were then stimulated with fMLF (0.1 μM) and CB (1 μg/mL) for 13 min. […] LY294002 was used as a positive control.

For data set [2] the test system is unchanged. The data set is described as follows: Elastase release in fMLF/CB-activated human neutrophils. It is filed as cell-based. The following applies: Homo sapiens, Neutrophil, fMLF/CB stimulation, mean ± SEM (n = 3–5); for inhibition at 10 µM: 10 μM compound. On the procedure: as §1
Neutrophils were subsequently stimulated with fMLF (0.1 μM) and CB (0.5 μg/mL) for 13 min. […] LY294002 was used as a positive control.

Molecule `CC(C)(C)C(=O)/C=C/c1ccc(Cl)cc1` [Compound 1, (E)-1-(4-Chlorophenyl)-4,4-dimethylpent-1-en-3-one] yielded a melting point of 85 to 85.5 °C. Further, the inhibition at 10 µM in data set [1] turned out to be 23.4 ± 7.96%. Further, the inhibition at 10 µM in data set [2] came out at 8.43 ± 4.28%.

Regarding `O=C(/C=C/c1ccc([N+](=O)[O-])cc1)C1CC1` [Compound 1a, (E)-1-Cyclopropyl-3-(4-nitrophenyl)prop-2-en-1-one], the melting point lay within 118.9 to 120 °C. In data set [1], the inhibition at 10 µM stood at 20.5 ± 4.05%. The inhibition at 10 µM in data set [2] was found to be 2.36 ± 3.3%.

On to `O=C(/C=C/c1ccc(Cl)cc1)c1ccccc1` [Compound 2, (E)-3-(4-Chlorophenyl)-1-phenylprop-2-en-1-one], for which, in data set [1], the inhibition at 10 µM stood at 94.7 ± 3.22% and half-maximal inhibition (IC50) was put at 3.01 ± 0.68 µM. Besides, in data set [2], the inhibition at 10 µM turned out to be 62 ± 6.31% and half-maximal inhibition (IC50) required 7.78 ± 0.96 µM.

In the case of `CC1(C(=O)/C=C/c2ccc([N+](=O)[O-])cc2)CC1` [Compound 2a, (E)-1-(1-Methylcyclopropyl)-3-(4-nitrophenyl)prop-2-en-1-one], the melting point was found to be 133.1 °C. Besides, the inhibition at 10 µM in data set [1] came out at 8.75 ± 5.03%. In data set [2], the inhibition at 10 µM was 8.39 ± 2.25%.

In the case of `CC(C)(C)C(=O)/C=C/c1ccc(Br)cc1` [Compound 3, (E)-1-(4-Bromophenyl)-4,4-dimethylpent-1-en-3-one], the melting point was determined as 101 °C. Further, the inhibition at 10 µM in data set [1] is 25 ± 2.48%. The inhibition at 10 µM in data set [2] came out at 9.09 ± 2.01%.

In turn, `O=C(/C=C/c1ccc([N+](=O)[O-])cc1)C1CCCCC1` [Compound 3a, (E)-1-Cyclohexyl-3-(4-nitrophenyl)prop-2-en-1-one] displayed a melting point of 132 to 134 °C. In addition, the inhibition at 10 µM in data set [1] came out at 11.4 ± 1.6%. Also, in data set [2], the inhibition at 10 µM stood at 11.9 ± 4.68%.

Molecule `CC(C)(C)C(=O)/C=C/c1ccc(C(F)(F)F)cc1` [Compound 4, (E)-4,4-Dimethyl-1-(4-(trifluoromethyl)phenyl)pent-1-en-3-one] registered a melting point of 70 to 71 °C. Besides, in data set [1], the inhibition at 10 µM was found to be 11.7 ± 5.39%. The inhibition at 10 µM in data set [2] is 1.18 ± 0.98%.

Consider `Cc1ccccc1C(=O)/C=C/c1ccc([N+](=O)[O-])cc1` [Compound 4a, (E)-3-(4-Nitrophenyl)-1-(o-tolyl)prop-2-en-1-one], for which the melting point was 128 to 129 °C. Besides, in data set [1], the inhibition at 10 µM is 100 ± 2.65% and 4.55 ± 0.1 µM corresponded to half-maximal inhibition (IC50). In addition, in data set [2], the inhibition at 10 µM stood at 63.8 ± 5.98% and it took 7.22 ± 1.16 µM to reach half-maximal inhibition (IC50).

The molecule `CCOc1ccccc1C(=O)/C=C/c1ccccc1C(F)(F)F` [Compound 5, (E)-1-(2-Ethoxyphenyl)-3-(2-(trifluoromethyl)phenyl)prop-2-en-1-one] had a melting point of 70.5 to 71.5 °C. Also, in data set [1], the inhibition at 10 µM amounted to 68.3 ± 8.99% and the concentration for half-maximal inhibition (IC50) amounted to 1.81 ± 0.22 µM. Besides, the inhibition at 10 µM in data set [2] turned out to be 8.13 ± 3.43%.

As for `COc1ccccc1C(=O)/C=C/c1ccc([N+](=O)[O-])cc1` [Compound 5a, (E)-1-(2-Methoxyphenyl)-3-(4-nitrophenyl)prop-2-en-1-one], the melting point is 116.5 to 118 °C. In data set [1], the inhibition at 10 µM amounted to 102 ± 1.92% and the IC50 came out at 3.77 ± 0.33 µM. Besides, in data set [2], the inhibition at 10 µM amounted to 75.6 ± 5.02% and the IC50 turned out to be 6.25 ± 0.52 µM.

The molecule `O=C(/C=C/c1ccc([N+](=O)[O-])cc1)c1ccccn1` [Compound 7, (E)-3-(4-Nitrophenyl)-1-(pyridin-2-yl)prop-2-en-1-one] gave a melting point of 153 to 155 °C. In addition, in data set [1], the inhibition at 10 µM is 94.5 ± 2.89% and the half-maximal inhibitory concentration (IC50) was 4.35 ± 0.3 µM. Moreover, in data set [2], the inhibition at 10 µM turned out to be 78.1 ± 0.36% and the IC50 came out at 6.17 ± 0.1 µM.

As to `COc1ccc(C(=O)/C=C/c2ccc([N+](=O)[O-])cc2)cc1` [Compound 7a, (E)-1-(4-Methoxyphenyl)-3-(4-nitrophenyl)prop-2-en-1-one], the results for the inhibition at 10 µM in data set [1] and in data set [2] were 59.7 ± 1.41% and 63.8 ± 6.59%, respectively. Besides, the figures for the IC50 in data set [1] and in data set [2] were 6.9 ± 0.67 µM and 6.33 ± 1.15 µM, respectively.

`CC(C)(C)C(=O)/C=C/c1cccc([N+](=O)[O-])c1` [Compound 8, (E)-4,4-Dimethyl-1-(3-nitrophenyl)pent-1-en-3-one]: the melting point was 92 to 93 °C. For the same molecule, in data set [1], the inhibition at 10 µM worked out at 10.3 ± 2.86%. For the same molecule, the inhibition at 10 µM in data set [2] was 4.89 ± 0.91%.

For `COc1ccc(C(=O)/C=C/c2ccc([N+](=O)[O-])cc2)cc1OC` [Compound 8a, (E)-1-(3,4-Dimethoxyphenyl)-3-(4-nitrophenyl)prop-2-en-1-one], the melting point was 189 to 191 °C. Further, in data set [1], the inhibition at 10 µM is 81 ± 2.57% and the IC50 worked out at 2.72 ± 0.35 µM. Further, in data set [2], the inhibition at 10 µM came out at 56.9 ± 3.22% and the IC50 was determined as 8.31 ± 0.78 µM.

`CC(C)(C)C(=O)/C=C/c1ccc(C#N)cc1` [Compound 9, (E)-4-(4,4-Dimethyl-3-oxopent-1-en-1-yl)benzonitrile]: the melting point lay in the range of 131 to 133 °C. The inhibition at 10 µM in data set [1] was 20.9 ± 5.55%. The inhibition at 10 µM in data set [2] came to 3.76 ± 2.69%.

With `O=C(/C=C/c1ccc([N+](=O)[O-])cc1)c1ccc2c(c1)OCO2` [Compound 9a, (E)-1-(Benzo[d][1,3]dioxol-5-yl)-3-(4-nitrophenyl)prop-2-en-1-one], the melting point came out at 182.4 °C. The inhibition at 10 µM in data set [1] amounted to 18.1 ± 3.34%. The inhibition at 10 µM in data set [2] was determined as 16.7 ± 6.07%.

Regarding `Cc1ccc(/C=C/C(=O)C(C)(C)C)cc1` [Compound 10, (E)-4,4-Dimethyl-1-(p-tolyl)pent-1-en-3-one], the melting point was 79 to 80 °C. In data set [1], the inhibition at 10 µM is 8.56 ± 3.04%. In addition, the inhibition at 10 µM in data set [2] amounted to 3.91 ± 2.82%.

`O=C(/C=C/c1ccc(Cl)cc1)c1ccc2ccccc2c1` [Compound 10a, (E)-3-(4-Chlorophenyl)-1-(naphthalen-2-yl)prop-2-en-1-one] came in with a melting point of 162 to 164 °C. For the same molecule, in data set [1], the inhibition at 10 µM amounted to 14.2 ± 6.87%. Moreover, the inhibition at 10 µM in data set [2] came to 33.2 ± 6.47%.

Molecule `CC(C)(C)Oc1ccc(/C=C/C(=O)C(C)(C)C)cc1` [Compound 11, (E)-1-(4-(tert-Butoxy)phenyl)-4,4-dimethylpent-1-en-3-one] returned a melting point of 110 to 111 °C. For the same molecule, the inhibition at 10 µM in data set [1] was determined as 16.8 ± 3.85%. In addition, in data set [2], the inhibition at 10 µM is 12.1 ± 3.43%.

The molecule `CC(C)(C)Oc1ccc(/C=C/C(=O)c2ccco2)cc1` [Compound 12, (E)-3-(4-(tert-Butoxy)phenyl)-1-(furan-2-yl)prop-2-en-1-one] gave a melting point of 132.8 to 134.8 °C. Moreover, the inhibition at 10 µM in data set [1] came to 27.3 ± 2.07%. For the same molecule, the inhibition at 10 µM in data set [2] was found to be 19.2 ± 4.05%.

As for `COc1cccc(C(=O)/C=C/c2ccc(Cl)cc2)c1` [Compound 13a, (E)-3-(4-Chlorophenyl)-1-(3-methoxyphenyl)prop-2-en-1-one], the inhibition at 10 µM in data set [1] was 101.7 ± 0.44%; in data set [2], 91.9 ± 1.63%. The half-inhibitory concentration (IC50) in data set [1] is 1.37 ± 0.73 µM; in data set [2] it was 3.3 ± 0.68 µM.

`COc1ccc(C(=O)/C=C/c2ccc(Cl)cc2)cc1` [Compound 14a, (E)-3-(4-Chlorophenyl)-1-(4-methoxyphenyl)prop-2-en-1-one]: in data set [1], the inhibition at 10 µM came out at 58.9 ± 3.26% and half-maximal inhibition (IC50) required 6.09 ± 7.19 µM. For the same molecule, the inhibition at 10 µM in data set [2] turned out to be 5.49 ± 4.32%.

For the molecule `COc1ccc(C(=O)/C=C/c2ccc(Cl)cc2)c(OC)c1` [Compound 15a, (E)-3-(4-Chlorophenyl)-1-(2,4-dimethoxyphenyl)prop-2-en-1-one], the inhibition at 10 µM came out at 13.9 ± 2.43% in data set [1] and 4.42 ± 3.9% in data set [2].

Consider `COc1ccc(C(=O)/C=C/c2ccc(Cl)cc2)cc1OC` [Compound 16a, (E)-3-(4-Chlorophenyl)-1-(3,4-dimethoxyphenyl)prop-2-en-1-one], for which, in data set [1], the inhibition at 10 µM is 68.2 ± 7.74% and it took 5.53 ± 1.48 µM to reach half-maximal inhibition (IC50). Moreover, in data set [2], the inhibition at 10 µM came to 22.9 ± 7.11%.

`COc1ccc(C(=O)/C=C/c2ccccc2Cl)cc1` [Compound 19a, (E)-3-(2-Chlorophenyl)-1-(4-methoxyphenyl)prop-2-en-1-one]: the inhibition at 10 µM is 80.2 ± 1.98% in data set [1] and 37.6 ± 3.54% in data set [2]. Inhibition in data set [1] was half-maximal at 5.23 ± 0.62 µM (IC50).

For the molecule `COc1ccc(C(=O)/C=C/c2ccccc2Cl)cc1OC` [Compound 20a, (E)-3-(2-Chlorophenyl)-1-(3,4-dimethoxyphenyl)prop-2-en-1-one], in data set [1], the inhibition at 10 µM is 95.6 ± 1.14% and it took 3.55 ± 0.56 µM to reach half-maximal inhibition (IC50). For the same molecule, in data set [2], the inhibition at 10 µM was determined as 67.7 ± 5.37% and the IC50 was 6.79 ± 0.72 µM.

For `CC(C)(C)C(=O)/C=C/c1ccc(Br)s1` [Compound 24, (E)-1-(5-Bromothiophen-2-yl)-4,4-dimethylpent-1-en-3-one], the inhibition at 10 µM in data set [1] came to 13 ± 6.88%; in data set [2], 25.7 ± 5.36%.

As for `CCOc1ccccc1C(=O)/C=C/c1ccc(Br)s1` [Compound 25, (E)-3-(5-Bromothiophen-2-yl)-1-(2-ethoxyphenyl)prop-2-en-1-one], in data set [1], the inhibition at 10 µM is 67.8 ± 3.19% and the midpoint of inhibition, the IC50, lay at 6.21 ± 0.36 µM. The inhibition at 10 µM in data set [2] amounted to 26.9 ± 5.5%.

Take `CC(C)(C)C(=O)/C=C/c1ccc2ccccc2n1` [Compound 27, (E)-4,4-Dimethyl-1-(quinolin-2-yl)pent-1-en-3-one]: the inhibition at 10 µM in data set [1] was determined as 2.26 ± 0.97%; in data set [2], 5.21 ± 2.72%.

For the molecule `O=c1cc(N2CCOCC2)oc2c(-c3ccccc3)cccc12` [LY294002, reference compound], the inhibition at 10 µM in data set [1] came to 102 ± 2.64%; in data set [2], 82.5 ± 3.76%.

As a reminder, the inhibition is the drop in the measured response relative to a control, in per cent. In general, melting point refers to the temperature of the solid-liquid transition. Usually IC50 stands for the midpoint of a concentration-inhibition curve. A high value points to weaker potency in that assay.
